Experimental findings from article PMC12647645, “Structural interactions of BWC0977 with Klebsiella pneumoniae topoisomerase IV and biochemical basis of its broad-spectrum activity” (Communications Biology, 2025) are described below.

Converted amounts (≈) assume the structure as drawn. Read-outs that look alike come from different tables or passages of the source. Some results are limits rather than exact numbers.

Experiment [1] concerns the target Human topo IIß (Homo sapiens, UniProt Q02880). Briefly: Human topo IIß decatenation assay. The experiment is classed as biochemical. The protocol: (§1) Human topo IIα (0.9 nM) and topo IIß (2.2 nM) decatenation assays were performed following the same protocol used for bacterial topoisomerase IV decatenation assays. The assay buffer was made of 50 mM Tris. HCl (pH 7.5), 125 mM NaCl, 10 mM MgCl2, 5 mM DTT, and 100 μg/mL albumin.

The target in experiment [2] is Human topo IIα (Homo sapiens, UniProt P11388). The experiment in a line: Human topo IIα decatenation assay. It counts as biochemical. The protocol:
as §1

Experiment [3] has as its system A. baumannii ATCC 19606. Briefly: MIC broth microdilution. The experiment is classed as cell-based. To be noted: Acinetobacter baumannii. (In broth dilution the organism is exposed to a series of concentrations in liquid medium.)
Experiment [4] deals with A. baumannii ATCC 19606 resistant mutant colonies (mutant 1-5). Briefly: microbe, parasite or virus in culture. As to conditions: Acinetobacter baumannii. It counts as cell-based.
In experiment [5] the test system is E. coli MG1655 GyrA D82N, ParC D79N. The experiment in a line: microbe, parasite or virus in culture. The experiment is classed as cell-based. To be noted: Escherichia coli.
Experiment [6] deals with E. coli MG1655 GyrA WT, ParC R119K. Briefly: microbe, parasite or virus in culture. It counts as cell-based. To be noted: Escherichia coli.
For experiment [7], the system named is E. coli MG1655 GyrA R121K, ParC WT. Briefly: microbe, parasite or virus in culture. It counts as cell-based. As to conditions: Escherichia coli.
In experiment [8] the test system is E. coli MG1655 GyrA M120A, ParC M118A. The experiment in a line: microbe, parasite or virus in culture. The experiment is classed as cell-based. As to conditions: Escherichia coli.
Experiment [9] has as its system E. coli MG1655 GyrA WT, ParC D79N. The experiment in a line: microbe, parasite or virus in culture. It counts as cell-based. To be noted: Escherichia coli.
In experiment [10] the test system is E. coli MG1655 (GyrA WT, ParC WT). Briefly: microbe, parasite or virus in culture. As to conditions: Escherichia coli. It counts as cell-based.
Experiment [11] concerns E. coli MG1655 GyrA D82N, ParC WT. The experiment in a line: microbe, parasite or virus in culture. It counts as cell-based. As to conditions: Escherichia coli.
For experiment [12], the target named is T1, E. coli gyrase (Escherichia coli, UniProt P0AES4+P0AES6).
T1 construct: purchased Inspiralis
The experiment in a line: biochemical. The experiment is classed as biochemical.

Experiment [13] concerns the target T2, E. coli topoisomerase IV (Escherichia coli, UniProt P0AFI2+P20083).
T2 construct: purchased Inspiralis
The experiment in a line: biochemical. It counts as biochemical. To be noted: read-out: IC50 E. coli topo IV decatenation.

[14] abbreviates: ATCC19606, read-out: MIC 90 in (μg/mL), resistant mutant colony 1.
The mark [15] stands for this setting: ATCC19606, read-out: MIC 90 in (μg/mL), resistant mutant colony 2.
[16] abbreviates: ATCC19606, read-out: MIC 90 in (μg/mL), resistant mutant colony 3.
[17] abbreviates: ATCC19606, read-out: MIC 90 in (μg/mL), resistant mutant colony 4.
[18] abbreviates: ATCC19606, read-out: MIC 90 in (μg/mL), resistant mutant colony 5.
Setting [19] is: ATCC19606, WT, Supplementary Table 4, read-out: MIC 90 in (μg/mL), A. baumannii ATCC 19606 (WT).

As usually defined, the IC50 is the concentration that inhibits the measured activity by half. With `COc1cc([C@@H]2c3cc4c(cc3[C@@H](O[C@@H]3O[C@@H]5CO[C@@H](c6cccs6)O[C@H]5[C@H](O)[C@H]3O)[C@H]3COC(=O)[C@H]23)OCO4)cc(OC)c1O` [Teniposide], the IC50 was determined as 92 µM in experiment [1] and 18 ± 5 µM in experiment [2] (read-out: IC50 Human topo IIα decatenation).

Turning to `CC[C@H]1OC(=O)[C@@](C)(F)C(=O)[C@H](C)[C@@H](O[C@@H]2O[C@H](C)C[C@H](N(C)C)[C@H]2O)[C@](C)(OC)C[C@@H](C)C(=O)[C@H](C)[C@H]2N(CCCCn3cc(-c4cccc(N)c4)nn3)C(=O)O[C@]12C` [Solithromycin], the MIC90 in experiment [3] (ATCC19606, read-out: MIC 90 in (μg/mL), A. baumannii ATCC 19606 (WT)) came out at 2.5 µg/mL (≈ 2.96 µM); in [4] (setting [14]), 5 µg/mL (≈ 5.92 µM); in experiment [4] (setting [15]), 2.5 µg/mL (≈ 2.96 µM); in experiment [4] (setting [16]) it was 2.5 µg/mL (≈ 2.96 µM); in [4] (setting [17]), 5 µg/mL (≈ 5.92 µM); in [4] (setting [18]) it was 2.5 µg/mL (≈ 2.96 µM).

With `CC1(C)S[C@@H]2[C@H](NC(=O)[C@H](N)c3ccccc3)C(=O)N2[C@H]1C(=O)O` [Ampicillin], the MIC is 3.3 µg/mL (≈ 9.44 µM) in experiment [5]; 5 µg/mL (≈ 14.3 µM) in [6]; 4.2 µg/mL (≈ 12 µM) in experiment [7]; 4.2 µg/mL (≈ 12 µM) in [8]; 2.5 µg/mL (≈ 7.15 µM) in [9]; 5 µg/mL (≈ 14.3 µM) in experiment [10]. The molecule further showed an MIC in experiment [11] of 5 µg/mL (≈ 14.3 µM).

Take `C[C@@H]1CN2c3c(cc4c(N5C(=O)OC[C@@H]5C)noc4c3F)CC3(C(=O)NC(=O)NC3=O)[C@H]2[C@H](C)O1` [Zoliflodacin]: the IC50 was 0.8 µM in experiment [12], 27 ± 12 µM in experiment [13] and above 200 µM in experiment [2].

As to `CO[C@@H]1[C@@H](OC(N)=O)[C@@H](O)[C@H](Oc2ccc3c(O)c(NC(=O)c4ccc(O)c(CC=C(C)C)c4)c(=O)oc3c2C)OC1(C)C` [Novobiocin], the MIC90 in [3] (setting [19]) is 10 µg/mL (≈ 16.3 µM).

In the case of `C[C@H]1COc2c(N3CCN(C)CC3)c(F)cc3c(=O)c(C(=O)O)cn1c23` [Levofloxacin], the MIC is 0.25 µg/mL (≈ 0.692 µM) in experiment [5]; 0.04 µg/mL (≈ 0.111 µM) in experiment [6]; 0.08 µg/mL (≈ 0.221 µM) in [7]; 0.02 µg/mL (≈ 0.0553 µM) in [8]; 0.02 µg/mL (≈ 0.0553 µM) in experiment [9]; 0.03 µg/mL (≈ 0.083 µM) in [10]. In experiment [11], this molecule gave an MIC of 0.13 µg/mL (≈ 0.36 µM). The concentration for half-maximal inhibition (IC50) is 0.39 µM in experiment [12] and 13 µM in [13].

As to `CN(C)[C@@H]1C(O)=C(C(N)=O)C(=O)[C@@]2(O)C(O)=C3C(=O)c4c(O)cccc4[C@@](C)(O)[C@H]3C[C@@H]12` [Tetracycline], the MIC90 in [3] (setting [19]) was 0.3 µg/mL (≈ 0.675 µM); in [4] (setting [14]), 0.6 µg/mL (≈ 1.35 µM); in experiment [4] (setting [15]), 0.6 µg/mL (≈ 1.35 µM); in experiment [4] (setting [16]), 0.6 µg/mL (≈ 1.35 µM); in experiment [4] (setting [17]), 0.6 µg/mL (≈ 1.35 µM); in experiment [4] (setting [18]), 0.6 µg/mL (≈ 1.35 µM).

For the molecule `C[C@@H](O)[C@H]1C(=O)N2C(C(=O)O)=C(S[C@@H]3CN[C@H](C(=O)N(C)C)C3)[C@H](C)[C@H]12` [Meropenem], the MIC90 in experiment [3] (setting [19]) amounted to 0.3 µg/mL (≈ 0.782 µM); in [4] (setting [16]) it was 0.15 µg/mL (≈ 0.391 µM); in [4] (setting [18]), 0.6 µg/mL (≈ 1.56 µM).

`CO[C@H]1/C=C/O[C@@]2(C)Oc3c(C)c(O)c4c(O)c(c(/C=N/N5CCN(C)CC5)c(O)c4c3C2=O)NC(=O)/C(C)=C\C=C\[C@H](C)[C@H](O)[C@@H](C)[C@@H](O)[C@@H](C)[C@H](OC(C)=O)[C@@H]1C` [Rifampicin]: the MIC90 came to 2.5 µg/mL (≈ 3.04 µM) in experiment [3] (setting [19]) and 1.25 µg/mL (≈ 1.52 µM) in experiment [4] (setting [14]).
